Results: paper PMC9781827, “Isolation and Identification of Anti-Inflammatory Peptide from Goose Blood Hydrolysate to Ameliorate LPS-Mediated Inflammation and Oxidative Stress in RAW264.7 Macrophages” (Molecules, 2022)

Test system: RAW264.7 macrophages
Experiment: Viability / cytotoxicity of RAW264.7 macrophages
Type: cell-based
Conditions: for viability of RAW264.7 macrophages: 3.0 μg/mL LPS, mean ± S.D., repeated three times
Method: The method of RAW264.7 macrophage culture and treatments were based on the study of Li et al.. RAW264.7 macrophages (Lot number: BH0799, Chinese Academy of Sciences, Shanghai, China) were grown in DMEM-F medium (1:1) containing 3.15 g/L glucose, 0.365 g/L l-glutamine, 3.57 g/L HEPES, 10% FBS and 1% antibiotics at 37 °C in an atmosphere with 5% CO2 and 90% relative humidity. […] The optimal concentration of LPS for inducing inflammation in the RAW264.7 macrophage was ensured according to cell viability. Furthermore, RAW264.7 macrophages were cultured with different concentrations of GBP (100 μg/mL, 200 μg/mL and 400 μg/mL) to evaluate the cytotoxicity of GBP as described above. The ability of GBP to protect RAW264.7 macrophages was evaluated. In the LPS + GBP group, the macrophages medium supplemented with 200 μg/mL GBP was incubated for 2 h. Then, the macrophages medium was substituted with a macrophages medium supplemented with 1.0 μg/mL LPS and incubated for 24 h. In the LPS group, standard macrophages medium incubated for 2 h. Then, the standard macrophages medium was substituted with macrophages medium supplemented with 1.0 μg/mL LPS and incubated for 24 h. In the CTRL group, standard macrophages medium incubated for 2 h, Then, the standard macrophages medium was replaced with a new one and incubated for 24 h. Finally, the macrophages medium and macrophages were collected for further analysis.

lipopolysaccharide [LPS]
viability of RAW264.7 macrophages (24 h, Figure 1A): approximately 51.51 ± 4.29% | viability of RAW264.7 macrophages (LPS group of Figure 1C (CTRL 100 ± 7.35%)): 51.57 ± 7.07% | LPS concentration resulting in 50% RAW264.7 macrophages death (24 h, estimated from viability at 3.0 μg/mL): around 3.0 μg/mL
